ChEMBL document CHEMBL1201862, “PubChem BioAssay data set” (2004)
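Five compound concentrations were applied to cells in 96-well plates for 48 hours; endpoints were derived by simple linear interpolation of the resulting dose-response curve. GI50 marks 50% less growth.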 Calls of active or inactive are those of the source. Rule as the data show it: active = GI50 up to about 1.1 µM and inactive = higher.

What was measured:
Test in all cases: inhibition of tumour cell growth, NCI panel, 48 h
[1] = test system: CAKI-1
[2] = test system: COLO 205
[3] = test system: EKVX
[4] = test system: HCT-116
[5] = test system: HCT-15
[6] = test system: HL-60
[7] = test system: HOP-62
[8] = test system: HOP-92
[9] = test system: HT-29
[10] = test system: K562
[11] = test system: KM12
[12] = test system: MDA-N
[13] = test system: NCI-H460
[14] = test system: OVCAR-5
[15] = test system: SF-295
[16] = test system: SK-MEL-28
[17] = test system: SK-MEL-2
[18] = test system: SNB-75
[19] = test system: SR
[20] = test system: U-251

SMILES | GI50 [1] | GI50 [2] | GI50 [3] | GI50 [4] | GI50 [5] [µM] | GI50 [6] | GI50 [7] | GI50 [8] | GI50 [9] | GI50 [10] | GI50 [11] | GI50 [12] | GI50 [13] | GI50 [14] | GI50 [15] | GI50 [16] | GI50 [17] | GI50 [18] | GI50 [19] | GI50 [20]
O=C1c2ccccc2C(=O)c2c(OCC3CO3)ccc(OCC3CO3)c21 (stereo not given) | 1.91 µM (inactive) | 4.44 µM (inactive) | 12.5 µM (inactive) | 1.99 µM (inactive) | 1.74 | 0.118 µM (active) | 1.95 µM (inactive) | 2.67 µM (inactive) | 4.84 µM (inactive) | 0.982 µM (active) | 5.04 µM (inactive) | 3.8 µM (inactive) | 1.99 µM (inactive) | 10.5 µM (inactive) | 2.28 µM (inactive) | 5.47 µM (inactive) | 14 µM (inactive) | 12.4 µM (inactive) | 0.113 µM (active) | 2.92 µM (inactive)
Cc1cc(=O)oc2cc(O)c(CN(C)CC(=O)O)cc12 | > 100 µM (inactive) | > 100 µM (inactive) | > 100 µM (inactive) | > 100 µM (inactive) | > 100 | > 100 µM (inactive) | – | > 100 µM (inactive) | > 100 µM (inactive) | > 100 µM (inactive) | > 100 µM (inactive) | > 100 µM (inactive) | > 100 µM (inactive) | > 100 µM (inactive) | – | > 100 µM (inactive) | > 100 µM (inactive) | > 100 µM (inactive) | > 100 µM (inactive) | > 100 µM (inactive)
C=CCNS(=O)(=O)c1ncnc2[nH]cnc12 | 26.2 µM (inactive) | > 100 µM (inactive) | > 100 µM (inactive) | > 100 µM (inactive) | > 100 | – | > 100 µM (inactive) | 5.75 µM (inactive) | > 100 µM (inactive) | 10.5 µM (inactive) | > 100 µM (inactive) | 82.8 µM (inactive) | – | > 100 µM (inactive) | > 100 µM (inactive) | > 100 µM (inactive) | > 100 µM (inactive) | > 100 µM (inactive) | 69.8 µM (inactive) | > 100 µM (inactive)
CC1(C)CCC[C@@]2(C)C1C(=O)[C@@H]1O[C@]1(C)[C@@H]2CO (stereo not given in full) | – | 18.4 µM (inactive) | 31.6 µM (inactive) | 19.7 µM (inactive) | 38 | 17.4 µM (inactive) | 40.2 µM (inactive) | 27.8 µM (inactive) | 37.9 µM (inactive) | 27.3 µM (inactive) | 29.4 µM (inactive) | 23.5 µM (inactive) | 13.5 µM (inactive) | > 100 µM (inactive) | 18.2 µM (inactive) | 13.7 µM (inactive) | 28.1 µM (inactive) | 24.5 µM (inactive) | 0.587 µM (active) | 14.8 µM (inactive)
CCOC(=O)Nc1cc(NC(/C=N/NC(C)=O)C(=O)OCC)c(OC)cc1NC(C)=O (stereo not given) | > 100 µM (inactive) | > 100 µM (inactive) | > 100 µM (inactive) | > 100 µM (inactive) | > 100 | – | > 100 µM (inactive) | > 100 µM (inactive) | > 100 µM (inactive) | > 100 µM (inactive) | > 100 µM (inactive) | > 100 µM (inactive) | > 100 µM (inactive) | > 100 µM (inactive) | > 100 µM (inactive) | > 100 µM (inactive) | > 100 µM (inactive) | > 100 µM (inactive) | > 100 µM (inactive) | > 100 µM (inactive)
C=C(C)C1CCC2=CC(CC3(C)OC3C3=CC(C(=O)OC)=C(C1)O3)OC2=O (stereo not given) | > 100 µM (inactive) | – | > 100 µM (inactive) | > 100 µM (inactive) | > 100 | > 10 µM (inactive) | > 100 µM (inactive) | 88.3 µM (inactive) | > 100 µM (inactive) | > 100 µM (inactive) | 98.4 µM (inactive) | > 100 µM (inactive) | > 100 µM (inactive) | > 100 µM (inactive) | > 100 µM (inactive) | > 100 µM (inactive) | > 100 µM (inactive) | 56.2 µM (inactive) | 83.2 µM (inactive) | > 100 µM (inactive)
CCCCc1ccc(Nc2nc3c(ncn3COCCBr)c(=O)[nH]2)cc1 | > 100 µM (inactive) | > 100 µM (inactive) | > 100 µM (inactive) | > 100 µM (inactive) | > 100 | > 100 µM (inactive) | > 100 µM (inactive) | > 100 µM (inactive) | > 100 µM (inactive) | > 100 µM (inactive) | > 100 µM (inactive) | > 100 µM (inactive) | > 100 µM (inactive) | > 100 µM (inactive) | > 100 µM (inactive) | – | > 100 µM (inactive) | > 100 µM (inactive) | 86.3 µM (inactive) | > 100 µM (inactive)
CO[C@@H]1C[C@H]2[C@@H]3CC[C@H]([C@H](C)COC(C)=O)[C@@]3(C)CC[C@@H]2[C@@]2(C)CC[C@H]3C[C@]312 | > 100 µM (inactive) | 34 µM (inactive) | > 100 µM (inactive) | > 100 µM (inactive) | > 100 | > 100 µM (inactive) | > 100 µM (inactive) | 73.5 µM (inactive) | > 100 µM (inactive) | 63.1 µM (inactive) | > 100 µM (inactive) | > 100 µM (inactive) | > 100 µM (inactive) | > 100 µM (inactive) | > 100 µM (inactive) | > 100 µM (inactive) | – | > 100 µM (inactive) | > 100 µM (inactive) | > 100 µM (inactive)
CCc1cccc(CC)c1NC(=S)NC(=O)c1ccc(Br)cc1 | 29.6 µM (inactive) | 18.1 µM (inactive) | 23.6 µM (inactive) | 28.8 µM (inactive) | 33.7 | 17.5 µM (inactive) | 32.4 µM (inactive) | 18.5 µM (inactive) | 36.9 µM (inactive) | 40.7 µM (inactive) | 33.8 µM (inactive) | 30.4 µM (inactive) | 17.7 µM (inactive) | > 50.4 µM (inactive) | > 53 µM (inactive) | 55.1 µM (inactive) | 18.6 µM (inactive) | 26.4 µM (inactive) | 20.3 µM (inactive) | 40.1 µM (inactive)
CCOC(=O)c1ccc(NC(NC(=O)CC)(C(F)(F)F)C(F)(F)F)cc1 | > 100 µM (inactive) | > 100 µM (inactive) | > 100 µM (inactive) | > 100 µM (inactive) | 97.1 | > 100 µM (inactive) | > 100 µM (inactive) | > 100 µM (inactive) | > 100 µM (inactive) | 39.3 µM (inactive) | 59.6 µM (inactive) | > 100 µM (inactive) | > 100 µM (inactive) | > 100 µM (inactive) | > 100 µM (inactive) | > 100 µM (inactive) | > 100 µM (inactive) | > 100 µM (inactive) | 14.1 µM (inactive) | > 100 µM (inactive)
Oc1ccc(-c2nn3c(CCCCCCCCc4nnc5sc(-c6ccc(O)cc6)nn45)nnc3s2)cc1 | > 100 µM (inactive) | > 100 µM (inactive) | > 100 µM (inactive) | > 100 µM (inactive) | > 100 | – | > 100 µM (inactive) | > 100 µM (inactive) | > 100 µM (inactive) | > 100 µM (inactive) | > 100 µM (inactive) | > 100 µM (inactive) | > 100 µM (inactive) | > 100 µM (inactive) | > 100 µM (inactive) | > 100 µM (inactive) | > 100 µM (inactive) | > 100 µM (inactive) | > 100 µM (inactive) | > 100 µM (inactive)
O=C/C=C/c1ccco1 | > 100 µM (inactive) | > 100 µM (inactive) | > 100 µM (inactive) | > 100 µM (inactive) | > 100 | 5.56 µM (inactive) | > 100 µM (inactive) | > 100 µM (inactive) | > 100 µM (inactive) | > 100 µM (inactive) | > 100 µM (inactive) | > 100 µM (inactive) | – | > 100 µM (inactive) | 61.8 µM (inactive) | > 100 µM (inactive) | > 100 µM (inactive) | > 100 µM (inactive) | 31.3 µM (inactive) | 96.8 µM (inactive)
CCOC(=O)c1c(O)cc(=O)[nH]c1N1CCOCC1 | > 100 µM (inactive) | > 100 µM (inactive) | > 100 µM (inactive) | > 100 µM (inactive) | > 100 | – | > 100 µM (inactive) | > 100 µM (inactive) | > 100 µM (inactive) | > 100 µM (inactive) | > 100 µM (inactive) | > 100 µM (inactive) | > 100 µM (inactive) | > 100 µM (inactive) | > 100 µM (inactive) | > 100 µM (inactive) | > 100 µM (inactive) | > 100 µM (inactive) | > 100 µM (inactive) | > 100 µM (inactive)
Cc1ncc([N+](=O)[O-])n1CCNC(=O)Cn1ccnc1[N+](=O)[O-] | > 100 µM (inactive) | > 100 µM (inactive) | – | > 100 µM (inactive) | > 100 | > 100 µM (inactive) | > 100 µM (inactive) | – | > 100 µM (inactive) | > 100 µM (inactive) | > 100 µM (inactive) | > 100 µM (inactive) | > 100 µM (inactive) | > 100 µM (inactive) | > 100 µM (inactive) | > 100 µM (inactive) | > 100 µM (inactive) | > 100 µM (inactive) | > 100 µM (inactive) | > 100 µM (inactive)
COc1ccc(-c2cc(=O)c3c(OC)c(OC)c(OC)c(OC)c3o2)cc1 [TANGERETIN] | 53.6 µM (inactive) | 55.7 µM (inactive) | 49.1 µM (inactive) | 34 µM (inactive) | 35 | 34.4 µM (inactive) | 82.6 µM (inactive) | 20.2 µM (inactive) | 35.2 µM (inactive) | 37.8 µM (inactive) | – | 54.7 µM (inactive) | 56.2 µM (inactive) | > 100 µM (inactive) | 55.3 µM (inactive) | > 100 µM (inactive) | 90.6 µM (inactive) | 46.8 µM (inactive) | > 100 µM (inactive) | 91 µM (inactive)
